Results filed as inconclusive are left out. The source made the active and inactive calls. How the calls were made is not given here.
system: S. typhimurium/E. coli reverse mutation, colony counts; test: Bacterial reverse mutation test (aka Ames test) summary data
Method in brief: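 Revertant colony counts on plates, compared with untreated controls, after about two days of growth. Exposure with or without liver S9 (rat/hamster/mouse), dose range per strain, 20-min 37° C preincubation or direct plate incorporation. Strains: his⁻ Salmonella, trp⁻ E. coli WP2 uvrA pKM101.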

SMILES | outcome
[O]=[W](=[O])=[O] | inactive; negative
Clc1c(Cl)c(Br)c2c(c1Cl)-c1nc-2nc2[n-]c(nc3nc(nc4[n-]c(n1)c1c(Cl)c(Br)c(Cl)c(Br)c41)-c1c(Cl)c(Cl)c(Br)c(Cl)c1-3)c1c(Br)c(Cl)c(Br)c(Cl)c21.[Cu+2] | active; positive
Nc1c(Oc2ccccc2)cc(O)c2c1C(=O)c1ccccc1C2=O | active; positive
c1ccc(COCc2ccccc2)cc1 | inactive; negative
CC(C)CO | inactive; negative
O=C1NC(=O)C(c2ccccc2)(c2ccccc2)N1 | inactive; negative
CC1=CC(=O)CC(C)(C)C1 | inactive; negative
N#CCC#N | inactive; negative
CCc1ccccc1N | inactive; negative
Oc1ccccc1 | inactive; negative
Nc1nc(=O)n([C@@H]2CS[C@H](CO)O2)cc1F | inactive; negative
O=Cc1ccc(Cl)cc1 | inactive; negative
Brc1c(Br)c(Br)c(Br)c(Br)c1Br | inactive; negative
CC(C)NCC(O)c1ccc(O)c(O)c1 (centres undefined) | active; weakly positive
O.O=S(=O)([O-])[O-].[Mn+2] | inactive; negative
Cc1ccc([N+](=O)[O-])c(C(=O)O)c1 | active; positive
O=C1O[C@H]([C@H](O)CO)C(O)=C1O | active; weakly positive
O=CNc1ccccc1 | inactive; negative
CCCC(=O)c1cc(O)c(O)cc1O | active; positive
Cc1cc(O)ccc1Cl | inactive; negative
Clc1cc(Cl)c(Cl)cc1Cl | inactive; negative
CCOP(=S)(OCC)OP(=S)(OCC)OCC | active; positive
C=CBr | active; positive

SMILES | outcome
c1ccc2c(c1)CCCC2 | inactive; negative
Cc1ccncc1 | inactive; negative
Nc1ccc(Cl)cc1 | active; positive
BrC(Br)C(Br)(Br)Br | inactive; negative
N#CCO | inactive; negative
CCCCOC(=O)c1ccccc1C(=O)OCc1ccccc1 | inactive; negative
O=C1C(Cl)=C(Cl)C(=O)C(Cl)=C1Cl | active; positive
CCCNCCC | inactive; negative
CC1=CC(C)(C)Nc2ccccc21 | inactive; negative
CC(CCN(C)C)N(C)C (centres undefined) | inactive; negative
Nc1ccc(-c2ccc(N)c(Cl)c2)cc1Cl | active; positive
CN(C)c1ccc2nc3ccc(=[N+](C)C)cc-3sc2c1 | active; positive
Cc1ccccc1N=Nc1c(O)ccc2ccccc12 | active; positive
CC(C)N | inactive; negative
O=c1ccc2ccccc2o1 | active; positive
[Cl-].[Cl-].[Sn+2] | inactive; negative
CC(C)C(C)C | inactive; negative
Nc1ccc(-c2ccc(N)cc2)cc1 | active; positive
C=CC1(C)OC(=O)N(c2cc(Cl)cc(Cl)c2)C1=O (centres undefined) | inactive; negative
N[C@@H](Cc1c[nH]c2ccccc12)C(=O)O | inactive; negative
C(=NC1CCCCC1)=NC1CCCCC1 | inactive; negative
CC=C(Cl)Cl | inactive; negative
CC(C)Nc1ccc(Nc2ccccc2)cc1 | inactive; negative

SMILES | outcome
CC(O)CN(CC(C)O)CC(C)O (centres undefined) | inactive; negative
OC(O)C(Cl)(Cl)Cl | active; positive
C1CCCC1 | inactive; negative
NCCCOCCOCCOCCCN | inactive; negative
CNC(=O)c1ccccc1 | inactive; negative
COc1ccc(O)cc1 | inactive; negative
Cc1ccc(N)cc1N | active; positive
CC(C)c1ccccc1 | inactive; negative
CC(C)[N+](=O)[O-] | active; positive
NC(=O)c1cccnc1 | inactive; negative
OCCC(F)(F)C(F)(F)C(F)(F)C(F)(F)C(F)(F)C(F)(F)C(F)(F)C(F)(F)F | inactive; negative
OC[C@@H](O)[C@@H](O)[C@H](O)[C@H](O)CO | inactive; negative
CC1=CC(=C(c2ccc(N)cc2)c2ccc(N)cc2)C=CC1=N | active; positive
C=CCCC#N | inactive; negative
CCNC(=O)CC(C)=O | inactive; negative
CC(Cl)CN(C)C (centres undefined) | active; positive
O=C(O)CN(CC(=O)O)CC(=O)O | inactive; negative
Cc1c(Br)c(Br)c(Br)c(Br)c1Br | inactive; negative
C[Si]12OCCN(CCO1)CCO2 | inactive; negative
Nc1ccccc1C(=O)OCCc1ccccc1 | inactive; negative
Cc1cc(C)nc(NS(=O)(=O)c2ccc(N)cc2)n1 | inactive; negative
Brc1ccccc1 | inactive; negative
CC1(C)[C@@H]2CC[C@@]1(C)C(=O)C2 | inactive; negative

SMILES | outcome
CCCCOCCOCCOCc1cc2c(cc1CCC)OCO2 | inactive; negative
CCOC(=O)C1=C[C@]2(CC)CCCN3CCc4c(n1c1ccccc41)[C@@H]32 | inactive; negative
CC(CCl)OC(C)CCl (centres undefined) | active; positive
c1ccc2scnc2c1 | inactive; negative
Cc1ccc(OCC2CO2)cc1 (centres undefined) | active; positive
NCCNCCNCCN | active; positive
CC(C)CC(=O)CC(C)C | inactive; negative
CCN(CC)c1ccc(N=O)c(O)c1 | inactive; negative
O=[N+]([O-])c1ccc(Cl)c(Cl)c1 | active; positive
C/C=C/C=C/C(=O)O | inactive; negative
O=C/C=C/O | inactive; negative
CC(C)COC(=O)COc1cc(Cl)c(Cl)cc1Cl | inactive; negative
CCCBr | inactive; negative
COc1ccc(N)c(OC)c1 | active; positive
C[N+](=O)[O-] | inactive; negative
Nc1ccc(Nc2ccccc2)cc1 | inactive; negative
COC(=O)c1ccc(C(=O)OC)cc1 | inactive; negative
O=Nc1ccc(O)cc1 | active; weakly positive
S=C=Nc1cccc2ccccc12 | active; positive
OCCCCl | active; positive
CN(C)CCCCl | active; positive
CCNc1ccccc1 | inactive; negative
Cc1ccc(N(C)C)cc1 | inactive; negative

SMILES | outcome
CCCN(CCC)CCC | inactive; negative
O=C1c2c(Br)c(Br)c(Br)c(Br)c2C(=O)N1CCN1C(=O)c2c(Br)c(Br)c(Br)c(Br)c2C1=O | inactive; negative
C=CCc1ccc(O)c(OC)c1 | inactive; negative
N#CSCSc1nc2ccccc2s1 | active; positive
NC(=O)CCCCC(N)=O | inactive; negative
Nc1cc(S(=O)(=O)[O-])cc2cc(S(=O)(=O)[O-])c(N=Nc3ccc(-c4ccc(N=Nc5c(S(=O)(=O)[O-])cc6cc(S(=O)(=O)[O-])cc(N)c6c5[O-])c([O-])c4)cc3[O-])c([O-])c12.[Cu+2].[Cu+2].[Na+].[Na+].[Na+].[Na+] | inactive; negative
Nc1ccc([N+](=O)[O-])cc1O | active; positive
CC(C)CC(C)N (centres undefined) | inactive; negative
COS(C)(=O)=O | active; positive
O=NN1CCCCC1 | active; positive
C=CCOCC1CO1 (centres undefined) | active; positive
CCOP(=O)(OCC)OCC | inactive; negative
CC(C)NC(C)C | inactive; negative
S=C=S | inactive; negative
S=c1[nH]c2ccccc2[nH]1 | inactive; negative
NC(N)=S | inactive; negative
ClCCCl | active; positive
[Na+] | inactive; negative
NC(Cc1ccc(F)cc1)C(=O)O (centres undefined) | inactive; negative
Nc1ncc([N+](=O)[O-])s1 | active; positive
C[C@]12CCC(=O)C=C1CC[C@@H]1[C@@H]2CC[C@]2(C)C(=O)CC[C@@H]12 | inactive; negative
CC(Cl)(Cl)[N+](=O)[O-] | active; positive
CCCCC(CC)COS(=O)(=O)O (centres undefined) | inactive; negative

SMILES | outcome
O=C(O)c1cc(O)c2c(c1)C(=O)c1cccc(O)c1C2=O | active; positive
CC(C)CC(C)Nc1ccc(Nc2ccccc2)cc1 (centres undefined) | inactive; negative
Cc1ccc(O)c(N)c1 | active; positive
Cc1cn([C@H]2C=C[C@@H](CO)O2)c(=O)[nH]c1=O | active; weakly positive
CC(=O)OCc1ccccc1 | inactive; negative
COC(=O)/C=C/C(C)=C\C=C\C(C)=C\C=C\C=C(C)\C=C\C=C(C)\C=C\C(=O)O | active; positive
CC[C@H](CC[C@@H](C)[C@H]1CC[C@H]2[C@@H]3CC=C4C[C@@H](O)CC[C@]4(C)[C@H]3CC[C@]12C)C(C)C | inactive; negative
CCN(CC)c1ccccc1 | inactive; negative
CCNc1nc(Cl)nc(NC(C)C)n1 | inactive; negative
C=CCNCC=C | inactive; negative
CC(=O)Nc1ccccc1N | active; positive
COc1cc(Cc2cnc(N)nc2N)cc(OC)c1OC | inactive; negative
Cc1cccc(C)c1N | active; weakly positive
CCC(C)(C)OC | inactive; negative
O=[N+]([O-])c1ccc(Nc2ccccc2O)c([N+](=O)[O-])c1 | active; positive
Cc1cc(C)c(C)c(C)c1 | inactive; negative
C=CC(=O)OC | inactive; negative
CN(C)c1ccc(N=Nc2ccccc2)cc1 | active; positive
CC(CCl)OP(=O)(OC(C)CCl)OC(C)CCl (centres undefined) | inactive; negative
